What was measured:
CD34+ HSPCs [1] = assay: Signaling-inhibitor experiments: MkMP-induced Mk differentiation of inhibitor-pretreated CD34+ HSPCs; conditions: for percent of cells CD34−CD41+: day 12, representative quadrant plots (FIG. 11E); for fraction of cells CD34+CD41−: day 7, representative quadrant plots (FIG. 11E)
Protocol: Signaling-inhibitor experiments: 60,000 CD34^+ HSPCs were pretreated with signaling inhibitors for 30 min, followed by co-culture with MkMPs (30 MPs per cell) in IMDM supplemented with 10% BIT 9500 and 50 ng/mL SCF. Inhibitors were replenished at days 3 and 7. At day 4, 7 and 12, cells were harvested for flow cytometric analysis of CD41, CD42b, and CD34 expression. Total-cell and Mk counts were measured at day 7.
To further investigate the effects of MkMPs in promoting megakaryocytic differentiation of CD34^+ HSPCs, and how this might relate to the miR content of MkMPs, we next probed likely signaling pathways using kinase inhibitors. […] Briefly, CD34^+ HSPCs were pretreated with kinase inhibitors of chosen signaling pathways (JNK, p38, MEK, PI3K, Akt and mTOR inhibitors, Table 6) for 30 min before they were co-cultured with MkMPs at the ratio of 10 MkMPs/cell. Inhibitors were replenished at days 3 and 7. CD41, CD42b and CD34 expression, and cell numbers were measured at days 4, 7, and 12.

PTEN [2] = assay: PTEN protein expression by flow cytometry in CD34+ HSPCs; type: cell-based, human; conditions: JNK inhibitor pretreatment, MkMP co-culture 24 hours (FIG. 13A)
Protocol: Cells were fixed in 4% paraformaldehyde for 15 min at room temperature, followed by the permeabilization in 90% methanol for 30 min at 4° C. After washing in PBS, cells were stained with Alexa 647-conjugated anti-mTOR (#5048S), PE-conjugated anti-Akt (#8790S), or Alexa 488-conjugated anti-p-Akt (#4071S) antibodies from Cell Signaling, or Alexa 647-conjugated anti-p-mTOR (#564242) from BD bioscience, for 1 hour at room temperature, followed by flow-cytometric analysis.
Phosphatase and TENsin homolog (PTEN) is a negative regulator of PI3K/Akt signaling in HSC development. Loss of PTEN results in enhanced cellular proliferation and megakaryopoiesis due to overactive of PI3K/Akt signaling. We hypothesized that activation of PI3K/Akt/mTOR signaling by MkMPs might be PTEN mediated. We thus examined the mRNA level of PTEN by quantitative PCR, and PTEN protein level by flow cytometry and immunoblotting. The impact on PTEN mRNA levels appears higher than that on protein levels. Compared to the vehicle control, PTEN protein or mRNA levels were around 10% or 30% lower, respectively, in HSPCs co-cultured with MkMPs (FIGS. 13A and 13B). […] These statistically-significant but relatively low-impact effects on PTEN protein expression would be expected given that the measurements were done within the first 24 hours of the co-culture, rather than late in the co-culture.

PTEN [3] = assay: PTEN mRNA level by qRT-PCR in CD34+ HSPCs; type: cell-based, human; conditions: JNK inhibitor pretreatment, MkMP co-culture 24 hours (FIG. 13B)
Protocol: Quantitative reverse transcription PCR (qRT-PCR): CD34^+ HSPCs pretreated with JNK inhibitor or solution without an inhibitor were co-cultured with MkMPs, non-targeting miR-loaded MkMPs, miR-486-5p inhibitor-loaded MkMPs at 30 MPs per cell, or vehicle control. At 24 hr, cells were harvested and total RNA was isolated, reversed transcribed for qPCR assay as described by Kao and Papoutsakis (Sci Adv. 2018; 4:eaau6762). qPCR assays for PTEN and GAPDH were performed with PerfeCTa SYBR Green Supermix (QuantaBio) and the following primers: Forward (5′-[…]-3′) (SEQ ID NO: 1), Reverse (5′-[…]-3′) (SEQ ID NO: 2) for PTEN, and Forward (5′-[…]-3′) (SEQ ID NO: 3), Reverse (5′-[…]-3′) (SEQ ID NO: 4) for GAPDH. PTEN mRNA level were quantified by normalized to GAPDH mRNA level as the reference gene.
Phosphatase and TENsin homolog (PTEN) is a negative regulator of PI3K/Akt signaling in HSC development. Loss of PTEN results in enhanced cellular proliferation and megakaryopoiesis due to overactive of PI3K/Akt signaling. We hypothesized that activation of PI3K/Akt/mTOR signaling by MkMPs might be PTEN mediated. We thus examined the mRNA level of PTEN by quantitative PCR, and PTEN protein level by flow cytometry and immunoblotting. The impact on PTEN mRNA levels appears higher than that on protein levels. […]

CD34+ HSPCs [4] = assay: Transfection of CD34+ HSPCs with miR mimics, culture without TPO; flow cytometry of CD41/CD42b, Mk and total cell counts; type: cell-based, human
Protocol: Transfection of CD34^+ HSPCs with miR mimics: 200,000 CD34^+ cells were freshly thawed and cultured in IMDM supplemented with 20% BIT 9500, and 100 ng/mL SCF. After 3 hours, cells were transfected with 8 μM of miR mimics, non-targeting miR (miR-NC), or without miR (No miR) using the Amaxa Nucleofector II with program U-08. […] Cells cultured in TPO-supplemented medium (100 ng/ml TPO), or co-cultured with MkMPs served as positive controls (TPO, MkMP). The medium was replaced one day after transfection. […] At day 13, cells were harvested for serotonin (5-HT), von willebrand factor (vWF), beta 1 tubulin (TUBB1), and DAPI staining, as described^7. The images were taken by ZEISS LSM 880 multiphoton confocal microscope. At day 16, cells were harvested for ploidy analysis by flow-cytometric analysis as described by Lindsey and Papoutsakis (Br J Haematol. 2011; 152(4):469-484).
To determine if there is a dose effect of miR mimics on Mk differentiation of HSPCs, using CD41 expression as the key early Mk-differentiation marker, we carried out a pilot study with two donor CD34^+-cell samples. CD34^+ HSPCs were transfected with high (8 μM) or low (2 μM) concentrations of miR-486-5p or miR-22-3p (generally known as miR-22) mimics were and cultured without TPO. […]

[5] = day 7, MkMP co-culture, inhibitor 10 uM (FIG. 11A)

In the case of `O=c1cc(N2CCOCC2)oc2c(-c3ccccc3)cccc12` [LY-294002], the “percent of cells CD34−CD41+” value (CD34+ HSPCs [1]) is reported as 16.5%.
For `CO[C@H]1C[C@@H]2CC[C@@H](C)[C@@](O)(O2)C(=O)C(=O)N2CCCC[C@H]2C(=O)O[C@H]([C@H](C)C[C@@H]2CC[C@@H](O)[C@H](OC)C2)CC(=O)[C@H](C)/C=C(\C)[C@@H](O)[C@@H](OC)C(=O)[C@H](C)C[C@H](C)/C=C/C=C/C=C/1C` [Rapamycin], the CD41 expression (CD34+ HSPCs [1]; [5]) was 32.1%, the “fraction of cells CD34+CD41−” value (CD34+ HSPCs [1]) was 48.3% and the “percent of cells CD34−CD41+” value (CD34+ HSPCs [1]) was 6.0%.
In the case of `C[S+]([O-])c1ccc(-c2nc(-c3ccncc3)c(-c3ccc(F)cc3)[nH]2)cc1` (centres unmarked) [SB203580], the “fraction of cells CD34+CD41−” value (CD34+ HSPCs [1]) is reported as 43.4% and the CD41 expression (CD34+ HSPCs [1]; day 12, MkMP co-culture, compared to MkMP control (FIG. 11B)) is reported as “significantly suppressed CD41 expression”.
With `Oc1c2ccccc2c2c3c(cccc13)N=N2` [SP600125] the CD41 expression (CD34+ HSPCs [1]; [5]) was 32.8%, the “fraction of cells CD34+CD41−” value (CD34+ HSPCs [1]) was 52.1% and the “percent of cells CD34−CD41+” value (CD34+ HSPCs [1]) was 12.6%. For the same compound, the “PTEN protein level above vehicle-control level” value (PTEN [2]) was 17% and the “PTEN mRNA level above vehicle-control level” value (PTEN [3]) was 260%.
With `COC[C@H]1OC(=O)c2coc3c2[C@@]1(C)C1=C(C3=O)[C@@H]2CCC(=O)[C@@]2(C)C[C@H]1OC(C)=O` [Wortmannin] the “percent of cells CD34−CD41+” value (CD34+ HSPCs [1]) was 25.3%.
For “TPO: recombinant human thrombopoietin, 100 ng/ml, positive control”, the “percent of cells expressing CD41” value (CD34+ HSPCs [4]; day 13, electroporated CD34+ cells, miR mimics without TPO, TPO 100 ng/ml or MkMP co-culture as positive controls (FIGS. 7A, 7B)) was 56% and the “percent CD41+CD42b+ double positive cells” value (CD34+ HSPCs [4]; day 13, representative quadrant plots (FIG. 7D)) was 38.9%.

Reference: patent publication US20220372441A1, “MICRORNAS ENRICHED IN MEGAKARYOCYTIC EXTRACELLULAR VESICLES AND USES THEREOF” (University of Delaware, priority 2019, published 2022)
